Earlier results as cited in patent US7625901B2, “Substituted monocyclic CGRP receptor antagonists” (Merck & Co., Inc., priority 2006, dated 2009).
No end group written: not given here.

Key:
facial blood flow [1] = conditions: marmoset, electrical stimulation of the trigeminal ganglion
[2] = tested on: headache induced by CGRP infusion; conditions: control group
[3] = tested on: acute attacks of migraine; conditions: clinical trials
facial blood flow [4] = conditions: rat, trigeminal ganglion stimulation
[5] = tested on: diameter of the middle meningeal artery; conditions: rats, electrical stimulation of the dura mater, prior administration

Row | Compound | block of increase in facial blood flow (facial blood flow [1]) | prevention of headache induced by CGRP infusion [2] | treating acute attacks of migraine [3] | inhibition of increased facial blood flow (facial blood flow [4]) | block of increased diameter of the middle meningeal artery [5]
1 | NCCCC[C@H](NC(=O)[C@@H](Cc1cc(Br)c(O)c(Br)c1)NC(=O)N1CCC(N2Cc3ccccc3NC2=O)CC1)C(=O)N1CCN(c2ccncc2)CC1 [BIBN4096BS] | could be blocked | able to prevent headache | effective |  | 
2 | CGRP(8-37): a peptide CGRP antagonist; fragment of CGRP that lacks seven N-terminal amino acid residues (VTHRLAGLLSRSGGVVKNNFVPTNVGSKAF; ends and bridges not checked; UniProt P06881 90-119, looked up, fragment) |  |  |  | inhibited | blocked
